In patent US10112899B2 (ViiV HEALTHCARE UK LIMITED, priority 2014, dated 2018) one finds IC50 data, which are given here for 20 compounds.

This test deals with HIV in the HTLV-1 transformed cell line MT-4. Kind of test: organism not typed. The test is classed as cell-based. As to conditions: MT4, 96 h, MT-4 cells; luciferase/cell titer glo readout after 96 hours; 10 point dose response. For orientation: In ATP-based viability assays light output follows the ATP content of the culture.
Broadly, the IC50 is the midpoint of a concentration-inhibition curve. `Cc1ccc(-c2c(C)c3c(c(C)c2[C@H](OC(C)(C)C)C(=O)O)CN(C(=O)NCC(C)(C)C)C3)cc1` [Example 74, (2S)-2-(tert-butoxy)-2-{2-[(2,2-dimethylpropyl)carbamoyl]-4,7-dimethyl-6-(4-methylphenyl)-2,3-dihydro-1H-isoindol-5-yl}acetic acid] registered a concentration for half-maximal inhibition (IC50) of 21 nM. Next, `Cc1ccc(-c2c(C)c3c(c(C)c2[C@H](OC(C)(C)C)C(=O)O)CN(C(=O)c2cncs2)C3)cc1` [Example 269, (S)-2-(tert-butoxy)-2-(4,7-dimethyl-2-(thiazole-5-carbonyl)-6-(p-tolyl)isoindolin-5-yl)acetic acid]: 116 nM; `Cc1ccc(-c2c(C)c3c(c(C)c2[C@H](OC(C)(C)C)C(=O)O)CN(C(=O)N2CCCC2)C3)cc1` [Example 35, (S)-2-(tert-butoxy)-2-(4,7-dimethyl-2-(pyrrolidine-1-carbonyl)-6-(p-tolyl)isoindolin-5-yl)acetic acid]: 12 nM. In turn, `Cc1ccc(-c2c(C)c3c(c(C)c2[C@H](OC(C)(C)C)C(=O)O)CN(C(=O)c2cc(F)c(Cl)c(Cl)c2)C3)cc1` [Example 277, (S)-2-(tert-butoxy)-2-(2-(3,4-dichloro-5-fluorobenzoyl)-4,7-dimethyl-6-(p-tolyl)isoindolin-5-yl)acetic acid] returned an IC50 of 14 nM. The IC50 values of the last two compounds are within 1.5-fold of each other.

For `Cc1c2c(c(C)c([C@H](OC(C)(C)C)C(=O)O)c1-c1ccc(Cl)cc1)CN(C(=O)CC(C)(C)C)C2` [Example 135, (S)-2-(tert-butoxy)-2-(6-(4-chlorophenyl)-2-(3,3-dimethylbutanol)-4,7-dimethylisoindolin-5-yl)acetic acid], 23 nM corresponded to half-maximal inhibition (IC50). `Cc1ccc(-c2c(C)c3c(c(C)c2[C@H](OC(C)(C)C)C(=O)O)CN(C(=O)c2ccc(C(F)(F)F)cc2)C3)cc1` [Example 227, (S)-2-(tert-butoxy)-2-(4,7-dimethyl-6-(p-tolyl)-2-(4-(trifluoromethyl)benzoyl)isoindolin-5-yl)acetic acid]: the IC50 came out at 14 nM. Next, `Cc1ccc(-c2c(C)c3c(c(C)c2[C@H](OC(C)(C)C)C(=O)O)CN(C(=O)C2(C)CCCCC2)C3)cc1` [Example 243, (S)-2-(tert-butoxy)-2-(4,7-dimethyl-2-(1-methylcyclohexanecarbonyl)-6-(p-tolyl)isoindolin-5-yl)acetic acid]: 18 nM.

The compound `Cc1c(-c2c(C)c3c(c(C)c2[C@H](OC(C)(C)C)C(=O)O)CN(C(=O)c2cccc4c2OC(F)(F)O4)C3)cc(F)c2c1CCCO2` (atropisomer, axis not shown; (M)) [Example 162, (S)-2-(tert-butoxy)-2-((M)-2-(2,2-difluorobenzo[d][1,3]dioxole-4-carbonyl)-6-(8-fluoro-5-methylchroman-6-yl)-4,7-dimethylisoindolin-5-yl)acetic acid] showed a 50% inhibitory concentration (IC50) of 2 nM. Under `Cc1ccc(-c2c(C)c3c(c(C)c2[C@H](OC(C)(C)C)C(=O)O)CN(C(=O)C2CC4(CCC4)C2)C3)cc1` [Example 118, (S)-2-(tert-butoxy)-2-(4,7-dimethyl-2-(spiro[3.3]heptane-2-carbonyl)-6-(p-tolyl)isoindolin-5-yl)acetic acid] stands 14 nM; under `Cc1ccc(-c2c(C)c3c(c(C)c2[C@H](OC(C)(C)C)C(=O)O)CN(C(=O)c2cc(C)cc(F)c2)C3)cc1` [Example 123, (S)-2-(tert-butoxy)-2-(2-(3-fluoro-5-methylbenzoyl)-4,7-dimethyl-6-(p-tolyl)isoindolin-5-yl)acetic acid], 4 nM. Under `Cc1c(-c2c(C)c3c(c(C)c2[C@H](OC(C)(C)C)C(=O)O)CN(C(=O)N2CCC(C)(C)C2)C3)cc(F)c2c1CCCO2` (atropisomer, axis not shown; (M)) [Example 214, (S)-2-(tert-butoxy)-2-((M)-2-(3,3-dimethylpyrrolidine-1-carbonyl)-6-(8-fluoro-5-methylchroman-6-yl)-4,7-dimethylisoindolin-5-yl)acetic acid] stands 3 nM; under `Cc1ccc(-c2c(C)c3c(c(C)c2[C@H](OC(C)(C)C)C(=O)O)CN(C(=O)N2CC[C@H](F)C2)C3)cc1` [Example 294, (S)-2-(tert-butoxy)-2-(2-((S)-3-fluoropyrrolidine-1-carbonyl)-4,7-dimethyl-6-(p-tolyl)isoindolin-5-yl)acetic acid], 4 nM. With `Cc1ccc(-c2c(C)c3c(c(C)c2[C@H](OC(C)(C)C)C(=O)O)CN(C(=S)N2CCCCC2)C3)cc1` [Example 131, (S)-2-(tert-butoxy)-2-(4,7-dimethyl-2-(piperidine-1-carbonothioyl)-6-(p-tolyl)isoindolin-5-yl)acetic acid], 19 nM corresponded to half-maximal inhibition (IC50). This IC50 is about 4.8-fold higher than that of the compound before. `COc1cc(C(=O)N2Cc3c(C)c(-c4cc(F)c5c(c4C)CCCO5)c([C@H](OC(C)(C)C)C(=O)O)c(C)c3C2)ccc1C` (atropisomer, axis not shown; (M)) [Example 156, (S)-2-(tert-butoxy)-2-(6-((M)-8-fluoro-5-methylchroman-6-yl)-2-(3-methoxy-4-methylbenzoyl)-4,7-dimethylisoindolin-5-yl)acetic acid] showed a half-maximal inhibitory concentration (IC50) of 3 nM. Regarding `Cc1ccc(-c2c(C)c3c(c(C)c2[C@H](OC(C)(C)C)C(=O)O)CN(C(=O)c2cccc(Cl)c2)C3)cc1` [Example 220, (S)-2-(tert-butoxy)-2-(2-(3-chlorobenzoyl)-4,7-dimethyl-6-(p-tolyl)isoindolin-5-yl)acetic acid], the half-maximal inhibitory concentration (IC50) turned out to be 4 nM. Under `Cc1ccc(C(=O)N2Cc3c(C)c(-c4cc(F)c5c(c4C)CCCO5)c([C@H](OC(C)(C)C)C(=O)O)c(C)c3C2)cc1F` (atropisomer, axis not shown; (M)) [Example 144, (S)-2-(tert-butoxy)-2-((M)-2-(3-fluoro-4-methylbenzoyl)-6-(8-fluoro-5-methylchroman-6-yl)-4,7-dimethylisoindolin-5-yl)acetic acid] stands 5 nM; under `Cc1c(-c2c(C)c3c(c(C)c2[C@H](OC(C)(C)C)C(=O)O)CN(Cc2cccc(F)c2)C3)cc(F)c2c1CCCO2` (atropisomer, axis not shown; (M)) [Example 8, (2S)(M)-2-(tert-Butoxy)-2-(-6-(8-fluoro-5-methylchroman-6-yl)-2-(3-fluorobenzyl)-4,7-dimethylisoindolin-5-yl)acetic acid], 5 nM. Under `Cc1ccc(-c2c(C)c3c(c(C)c2[C@H](OC(C)(C)C)C(=O)O)CN(Cc2cccc(F)c2)C3)cc1` [Example 22, (S)-2-(tert-butoxy)-2-(2-(3-fluorobenzyl)-4,7-dimethyl-6-(p-tolyl)isoindolin-5-yl)acetic acid] stands 20 nM; under `Cc1ccc(-c2c(C)c3c(c(C)c2[C@H](OC(C)(C)C)C(=O)O)CN(C(=O)N2CCCCCCC2)C3)cc1` [Example 65, (2S)-2-[2-(azocane-1-carbonyl)-4,7-dimethyl-6-(4-methylphenyl)-2,3-dihydro-1H-isoindol-5-yl]-2-(tert-butoxy)acetic acid], 10 nM. Under `CNC(=O)c1cccc(CN2Cc3c(C)c(-c4ccc(C)cc4)c([C@H](OC(C)(C)C)C(=O)O)c(C)c3C2)c1` [Example 43, (2S)-2-(tert-butoxy)-2-(4,7-dimethyl-2-{[3-(methylcarbamoyl)phenyl]methyl}-6-(4-methylphenyl)-2,3-dihydro-1H-isoindol-5-yl)acetic acid] stands 937 nM.
